Columns and labels:
Conditions in all cases: crude E. coli lysate 70 µg/mL protein, 0.1 M Na-phosphate pH 7, 37 °C
EEB1 = EEB1 (Saccharomyces cerevisiae, UniProt Q02891)
AcAlT = target: T1, AcAlT (Komagataella phaffii, UniProt C4QX24); test: p-nitrophenol release, absorbance […] nm; format: biochemical
T1 construct: gene PAS_chr1-1_0419; codon-optimized gene in pET15b (pAPS07), E. coli BL21-DE3 strain SSL26; crude lysate
T1 sequence (C4QX24 1-452): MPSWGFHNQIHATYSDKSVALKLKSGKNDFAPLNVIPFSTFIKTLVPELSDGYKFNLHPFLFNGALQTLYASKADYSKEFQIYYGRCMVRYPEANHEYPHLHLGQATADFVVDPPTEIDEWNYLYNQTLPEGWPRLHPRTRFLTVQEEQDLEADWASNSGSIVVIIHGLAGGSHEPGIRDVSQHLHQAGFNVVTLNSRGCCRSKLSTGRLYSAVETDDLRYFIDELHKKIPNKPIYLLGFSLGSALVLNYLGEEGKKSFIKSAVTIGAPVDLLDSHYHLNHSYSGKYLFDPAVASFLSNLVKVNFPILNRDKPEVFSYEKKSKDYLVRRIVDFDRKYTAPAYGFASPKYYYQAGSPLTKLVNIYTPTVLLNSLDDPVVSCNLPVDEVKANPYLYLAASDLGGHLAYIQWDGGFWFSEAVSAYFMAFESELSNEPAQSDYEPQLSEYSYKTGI

tEstA = target: T2, tEstA (Pseudomonas aeruginosa, UniProt O33407); test: p-nitrophenol release, absorbance […] nm; format: biochemical
T2 construct: gene estA; crude lysate
T2 sequence (O33407 25-646): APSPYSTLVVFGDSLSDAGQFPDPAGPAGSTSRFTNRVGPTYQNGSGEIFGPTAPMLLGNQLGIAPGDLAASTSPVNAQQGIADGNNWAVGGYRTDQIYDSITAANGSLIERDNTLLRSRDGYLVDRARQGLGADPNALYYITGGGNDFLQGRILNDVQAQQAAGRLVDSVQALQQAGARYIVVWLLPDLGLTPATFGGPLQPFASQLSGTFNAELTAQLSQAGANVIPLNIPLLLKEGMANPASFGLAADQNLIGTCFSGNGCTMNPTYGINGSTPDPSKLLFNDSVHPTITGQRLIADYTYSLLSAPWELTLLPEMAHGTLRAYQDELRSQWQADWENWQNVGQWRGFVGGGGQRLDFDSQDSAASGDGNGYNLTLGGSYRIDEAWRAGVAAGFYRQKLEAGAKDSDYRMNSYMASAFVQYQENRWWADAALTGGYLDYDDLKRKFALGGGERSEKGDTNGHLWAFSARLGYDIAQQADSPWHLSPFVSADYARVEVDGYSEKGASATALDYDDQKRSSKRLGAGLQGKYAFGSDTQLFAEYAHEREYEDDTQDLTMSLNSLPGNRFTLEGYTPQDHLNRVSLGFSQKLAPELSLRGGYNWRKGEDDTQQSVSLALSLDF

CE = target: T3, CE (Brettanomyces bruxellensis, UniProt A0A7D9GZZ0); test: p-nitrophenol release, absorbance […] nm; format: biochemical
T3 construct: gene DEBR0S1_34310G; crude lysate
T3 sequence (A0A7D9GZZ0 entry or part of it): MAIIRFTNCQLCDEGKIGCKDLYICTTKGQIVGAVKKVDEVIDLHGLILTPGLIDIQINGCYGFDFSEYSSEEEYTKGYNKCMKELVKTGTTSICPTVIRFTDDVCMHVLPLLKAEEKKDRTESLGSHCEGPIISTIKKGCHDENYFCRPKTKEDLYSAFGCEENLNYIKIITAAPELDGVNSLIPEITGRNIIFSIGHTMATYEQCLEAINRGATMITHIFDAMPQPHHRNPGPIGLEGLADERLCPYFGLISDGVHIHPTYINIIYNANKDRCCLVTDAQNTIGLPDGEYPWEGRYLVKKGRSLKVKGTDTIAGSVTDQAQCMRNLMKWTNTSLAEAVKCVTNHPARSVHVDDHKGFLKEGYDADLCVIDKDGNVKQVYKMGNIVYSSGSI

EEB1, sequence (Q02891 whole entry): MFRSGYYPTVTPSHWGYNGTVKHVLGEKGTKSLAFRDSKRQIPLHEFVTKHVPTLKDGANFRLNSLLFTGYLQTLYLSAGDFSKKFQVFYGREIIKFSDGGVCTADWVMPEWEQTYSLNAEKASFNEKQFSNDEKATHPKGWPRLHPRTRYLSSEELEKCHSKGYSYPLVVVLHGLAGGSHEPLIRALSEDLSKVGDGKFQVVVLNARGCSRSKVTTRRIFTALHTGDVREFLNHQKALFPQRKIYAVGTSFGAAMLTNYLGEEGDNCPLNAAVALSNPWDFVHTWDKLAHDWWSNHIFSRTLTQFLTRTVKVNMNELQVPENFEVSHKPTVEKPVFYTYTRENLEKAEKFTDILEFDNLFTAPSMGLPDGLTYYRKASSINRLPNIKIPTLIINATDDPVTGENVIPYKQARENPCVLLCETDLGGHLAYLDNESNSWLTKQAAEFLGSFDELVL

Structure (SMILES): CC(=O)Oc1ccc([N+](=O)[O-])cc1 [p-nitrophenyl acetate]
- KM (EEB1): KM values revealed that EEB1 exhibited the highest catalytic efficiency for pNPA hydrolysis
- KM (AcAlT): AcAlT, despite being acyltransferase, showed the second highest efficiency and relatively lower KM
- KM (tEstA): CE and tEstA, on the other hand, indicated relatively moderate hydrolysis activity with higher KM
- KM (CE): CE and tEstA, on the other hand, indicated relatively moderate hydrolysis activity with higher KM
